In patent publication US8901118B2, “Compounds and methods for kinase modulation, and indications therefor” (Plexxikon Inc., priority 2010, dated 2014):

Molecular target: T1, BCR-KIT BaF3 cells (Homo sapiens, UniProt P10721)
T1 construct: fused on or other part: P11274 (Breakpoint cluster region protein)
Assay: BaF3 BCR-KIT cell proliferation assay (ATPlite)
Format: cell-based
Conditions: read-out: Inhibition of Cell Proliferation IC50, BCR/BaF3 Kit
Protocol: Compounds are assessed in a variety of cell based assays. For example BaF3 cells engineered with any of BCR-FMS, BCR-KIT, BCR-FLT3, BCR-NTRK1, BCR-NTRK2, and BCR-NTRK3, are used in cell proliferation assays to assess inhibitory activity of Fms, Kit, Flt-3, TrkA, TrkB, and TrkC, respectively. An MV-4-11 (leukemia) cell proliferation assay is used to assess inhibitory activity in Flt-3, and SKNSH (human neuroblastoma) cell proliferation assay is used to assess efficacy of Fms/Trk inhibitors. Additional cells may be assayed similarly to assess the efficacy of Fms/Trk inhibitors, such as MiaPaCa (human pancreatic cancer) and Capan-1 (human pancreatic carcinoma) cells. Reagent and assay conditions are as follows: • BaF3 cells: • Maintained in RPMI containing 10% FBS, 1% PenStrep, 1% NEAA, and 1% L-Glutamine, supplemented with 1 mg/mL G418 and 5% WEHI-CM (or recombinant murine IL-3). • Confluent cells are split 1:50 to 1:100 every 3-4 days. • MV-4-11 cells: • Maintained in Iscove's Modified Dulbecco's Medium containing 10% FBS. • Confluent cells are split 1:4 every 3-4 days. • SKNSH cells: RPMI containing 10% FBS. On day 1, cells are counted, then centrifuged in a conical tube for 5 minutes at 1000 rpm. The supernatant is removed and cells are re-suspended as follows: • BaF3: resuspend in growth media +1 mg/mL G418 (without WEHFIL-3) to 2×10^5 cells/mL. • MV-4-11: resuspend in growth media to 5×10^5 cells/mL. • SKNSH: resuspend in growth media to 2×10^4 cells/mL. The cells are plated (50 μL, 150 μL for SKNSH cells) in each well of a 96-well dish (Corning 3610) and incubated at 37° C. in 5% CO2 overnight, cells plated to a final concentration of cells as follows: • BaF3: 10,000 cells per well. • MV-4-11: 25,000 cells per well. • SKNSH: 3,000 cells per well. On day 2, compound at a maximum concentration of 5 mM is serially diluted 1:3 for a total of 8 point titration with DMSO as a control. A 1 μL aliquot of each dilution point is added to 249 μL growth media and 50 μL is added to a well containing cells, providing 10 μM compound for the maximum concentration point. The cells are incubated for 3 days at 37° C. in 5% CO2. For SKNSH cells, a 0.75 μL aliquot of appropriate dilution in DMSO is added to 150 μL of cells. On day 5, ATPlite 1 step Luminescence Assay System (Perkin Elmer #6016739) is brought to room temperature along with the cell cultures. ATPlite is added to each well as follows: • BaF3: 25 μL per well. • MV-4-11: 40 μL per well. • SKNSH: 20 μL per well. The cells are incubated at room temperature for 10 minutes, then luminescence is read on Safire reader. The measured luminescence correlates directly with cell number, such that the reading as a function of compound concentration is used to determine the IC50 value.
It is understood that the results of these assays may vary as assay conditions are varied. Inhibition levels determined under the conditions described herein represent a relative activity for the compounds tested under the specific conditions employed. The cell based assays are likely to show variability due to the complexity of the system and the sensitivity thereof to any changes in the assay conditions. […] Results for compounds that are tested and show substantially no inhibition below the highest tested concentration are represented as “-” in the tables below. In some instances, the compounds were not tested in all of the assays, or assay results were not valid, as indicated by NA in the tables below.

T1 sequence (P10721 589-937): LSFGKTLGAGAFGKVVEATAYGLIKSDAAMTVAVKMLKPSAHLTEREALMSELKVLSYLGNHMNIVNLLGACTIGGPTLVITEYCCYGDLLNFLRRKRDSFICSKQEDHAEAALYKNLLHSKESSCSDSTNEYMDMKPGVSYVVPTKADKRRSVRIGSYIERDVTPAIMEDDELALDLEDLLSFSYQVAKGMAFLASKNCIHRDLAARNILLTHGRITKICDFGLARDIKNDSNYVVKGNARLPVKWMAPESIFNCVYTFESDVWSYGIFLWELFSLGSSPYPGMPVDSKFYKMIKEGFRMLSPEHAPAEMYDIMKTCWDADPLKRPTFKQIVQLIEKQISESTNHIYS

| SMILES | IC50 |
| --- | --- |
| CC1CCC(Nc2ncc(Cc3c[nH]c4ncc(Cl)cc34)cn2)CC1 (stereo not shown) [Compound P-3009, [5-(5-Chloro-1H-pyrrolo[2,3-b]pyridin-3-ylmethyl)-pyrimidin-2-yl]-(4-methyl-cyclohexyl)-amine] | > 1000 nM |
| Clc1ccc(Nc2ncc(Cc3c[nH]c4ncc(Cl)cc34)cn2)cc1 [Compound P-3011, (4-Chloro-phenyl)-[5-(5-chloro-1H-pyrrolo[2,3-b]pyridin-3-ylmethyl)-pyrimidin-2-yl]-amine] | < 100 nM |
| Fc1ccc(Nc2ncc(Cc3c[nH]c4ncc(Cl)cc34)cn2)cc1 [Compound P-3012, [5-(5-Chloro-1H-pyrrolo[2,3-b]pyridin-3-ylmethyl)-pyrimidin-2-yl]-(4-fluoro-phenyl)-amine] | < 1000 nM |
| Fc1ccccc1Nc1ncc(Cc2c[nH]c3ncc(Cl)cc23)cn1 [Compound P-3014, [5-(5-Chloro-1H-pyrrolo[2,3-b]pyridin-3-ylmethyl)-pyrimidin-2-yl]-(2-fluoro-phenyl)-amine] | > 1000 nM |
| Clc1cnc2[nH]cc(Cc3cnc(Nc4ccccc4Cl)nc3)c2c1 [Compound P-3015, (2-Chloro-phenyl)-[5-(5-chloro-1H-pyrrolo[2,3-b]pyridin-3-ylmethyl)-pyrimidin-2-yl]-amine] | > 1000 nM |
| CCc1ccc(Nc2ccc(C(=O)c3c[nH]c4ncnc(NCC(C)(C)O)c34)c(F)n2)cn1 [Compound P-4064, [6-[(6-ethyl-3-pyridyl)amino]-2-fluoro-3-pyridyl]-[4-[(2-hydroxy-2-methyl-propyl)amino]-7H-pyrrolo[2,3-d]pyrimidin-5-yl]methanone] | < 100 nM |
| COc1ccc(Nc2ccc(C(=O)c3c[nH]c4ncnc(NC(C)C)c34)c(F)n2)cn1 [Compound P-4066, [2-fluoro-6-[(6-methoxy-3-pyridyl)amino]-3-pyridyl]-[4-(isopropylamino)-7H-pyrrolo[2,3-d]pyrimidin-5-yl]methanone] | < 10 nM |
| COc1ccc(Nc2ccc(C(=O)c3c[nH]c4ncnc(NCC5CC5)c34)c(F)n2)cn1 [Compound P-4067, [4-(cyclopropylmethylamino)-7H-pyrrolo[2,3-d]pyrimidin-5-yl]-[2-fluoro-6-[(6-methoxy-3-pyridyl)amino]-3-pyridyl]methanone] | < 100 nM |
| CCCNc1ncnc2[nH]cc(C(=O)c3ccc(Nc4ccc(OC)nc4)nc3F)c12 [Compound P-4068, [2-fluoro-6-[(6-methoxy-3-pyridyl)amino]-3-pyridyl]-[4-(propylamino)-7H-pyrrolo[2,3-d]pyrimidin-5-yl]methanone] | < 100 nM |
| COc1ccc(Nc2ccc(C(=O)c3c[nH]c4ncnc(N5CCCCC5)c34)c(F)n2)cn1 [Compound P-4069, [2-fluoro-6-[(6-methoxy-3-pyridyl)amino]-3-pyridyl]-[4-(1-piperidyl)-7H-pyrrolo[2,3-d]pyrimidin-5-yl]methanone] | > 1000 nM |
| COc1ccc(Nc2ccc(C(=O)c3c[nH]c4ncnc(N5CCOCC5)c34)c(F)n2)cn1 [Compound P-4070, [2-fluoro-6-[(6-methoxy-3-pyridyl)amino]-3-pyridyl]-(4-morpholino-7H-pyrrolo[2,3-d]pyrimidin-5-yl)methanone] | > 1000 nM |
| COc1ccc(Nc2ccc(C(=O)c3c[nH]c4ncnc(NCc5ccc(C(F)(F)F)nc5)c34)c(F)n2)cn1 [Compound P-4071, [2-fluoro-6-[(6-methoxy-3-pyridyl)amino]-3-pyridyl]-[4-[[6-(trifluoromethyl)-3-pyridyl]methylamino]-7H-pyrrolo[2,3-d]pyrimidin-5-yl]methanone] | < 100 nM |
| COc1ccc(Nc2ccc(C(=O)c3c[nH]c4ncnc(N[C@@H](C)c5ccc(F)cc5)c34)c(F)n2)cn1 [Compound P-4072, [2-fluoro-6-[(6-methoxy-3-pyridyl)amino]-3-pyridyl]-[4-[[(1S)-1-(4-fluorophenyl)ethyl]amino]-7H-pyrrolo[2,3-d]pyrimidin-5-yl]methanone] | < 1000 nM |
| COc1ccc(Nc2ccc(C(=O)c3c[nH]c4ncnc(NCC5CCCO5)c34)c(F)n2)cn1 (stereo not shown) [Compound P-4073, [2-fluoro-6-[(6-methoxy-3-pyridyl)amino]-3-pyridyl]-[4-(tetrahydrofuran-2-ylmethylamino)-7H-pyrrolo[2,3-d]pyrimidin-5-yl]methanone] | < 1000 nM |
| CCN1CCC(Nc2ncnc3[nH]cc(C(=O)c4ccc(Nc5ccc(OC)nc5)nc4F)c23)CC1 [Compound P-4074, [4-[(1-ethyl-4-piperidyl)amino]-7H-pyrrolo[2,3-d]pyrimidin-5-yl]-[2-fluoro-6-[(6-methoxy-3-pyridyl)amino]-3-pyridyl]methanone] | < 1000 nM |
| COc1ccc(Nc2ccc(C(=O)c3c[nH]c4ncnc(NC5CCCC5)c34)c(F)n2)cn1 [Compound P-4075, [4-(cyclopentylamino)-7H-pyrrolo[2,3-d]pyrimidin-5-yl]-[2-fluoro-6-[(6-methoxy-3-pyridyl)amino]-3-pyridyl]methanone] | < 100 nM |
| COc1ccc(Nc2ccc(C(=O)c3c[nH]c4ncnc(NC5CCC5)c34)c(F)n2)cn1 [Compound P-4076, [4-(cyclobutylamino)-7H-pyrrolo[2,3-d]pyrimidin-5-yl]-[2-fluoro-6-[(6-methoxy-3-pyridyl)amino]-3-pyridyl]methanone] | < 100 nM |
| CCC(CC)Nc1ncnc2[nH]cc(C(=O)c3ccc(Nc4ccc(OC)nc4)nc3F)c12 [Compound P-4077, [4-(1-ethylpropylamino)-7H-pyrrolo[2,3-d]pyrimidin-5-yl]-[2-fluoro-6-[(6-methoxy-3-pyridyl)amino]-3-pyridyl]methanone] | < 100 nM |
| CCC(C)Nc1ncnc2[nH]cc(C(=O)c3ccc(Nc4ccc(OC)nc4)nc3F)c12 (stereo not shown) [Compound P-4078, [2-fluoro-6-[(6-methoxy-3-pyridyl)amino]-3-pyridyl]-[4-(sec-butylamino)-7H-pyrrolo[2,3-d]pyrimidin-5-yl]methanone] | < 100 nM |
| COCCCNc1ncnc2[nH]cc(C(=O)c3ccc(Nc4ccc(OC)nc4)nc3F)c12 [Compound P-4079, [2-fluoro-6-[(6-methoxy-3-pyridyl)amino]-3-pyridyl]-[4-(3-methoxypropylamino)-7H-pyrrolo[2,3-d]pyrimidin-5-yl]methanone] | < 100 nM |
| CCCCNc1ncnc2[nH]cc(C(=O)c3ccc(Nc4ccc(OC)nc4)nc3F)c12 [Compound P-4080, [4-(butylamino)-7H-pyrrolo[2,3-d]pyrimidin-5-yl]-[2-fluoro-6-[(6-methoxy-3-pyridyl)amino]-3-pyridyl]methanone] | < 100 nM |
| CCNc1ncnc2[nH]cc(C(=O)c3ccc(Nc4ccc(OC)nc4)nc3F)c12 [Compound P-4081, [4-(ethylamino)-7H-pyrrolo[2,3-d]pyrimidin-5-yl]-[2-fluoro-6-[(6-methoxy-3-pyridyl)amino]-3-pyridyl]methanone] | < 100 nM |
| COc1ccc(Nc2ccc(C(=O)c3c[nH]c4ncnc(NC5CCCCC5)c34)c(F)n2)cn1 [Compound P-4082, [4-(cyclohexylamino)-7H-pyrrolo[2,3-d]pyrimidin-5-yl]-[2-fluoro-6-[(6-methoxy-3-pyridyl)amino]-3-pyridyl]methanone] | < 100 nM |
| CNc1ncnc2[nH]cc(C(=O)c3ccc(Nc4ccc(OC)nc4)nc3F)c12 [Compound P-4083, [2-fluoro-6-[(6-methoxy-3-pyridyl)amino]-3-pyridyl]-[4-(methylamino)-7H-pyrrolo[2,3-d]pyrimidin-5-yl]methanone] | < 100 nM |
| CNc1ncnc2[nH]cc(C(=O)c3ccc(Nc4ccc(OC)nc4)nc3OC)c12 [Compound P-4085, [2-methoxy-6-[(6-methoxy-3-pyridyl)amino]-3-pyridyl]-[4-(methylamino)-7H-pyrrolo[2,3-d]pyrimidin-5-yl]methanone] | > 1000 nM |
